≈ marks a conversion by molar mass, not a printed value.
Tested on: up to 32 different microorganisms
Test: in vitro antibacterial activity (MIC), agar dilution on Brain Heart Infusion (BHI) agar with Steers replicator
Format: cell-based
Settings: unit assumed
In short: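 Erythromycin A served as the same-class reference for test-to-test comparability. Test compound was tested over twelve successive dilutions in BHI agar; plates were incubated 20 to 24 hours at 35°-37° C, with MIC taken as the lowest concentration showing no growth, slight haze, or sparse colonies.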

Row | Structure (SMILES) | MIC (organism code AA) | MIC (organism code BB) | MIC (organism code CC) | MIC (organism code DD) | MIC (organism code EE) | MIC (organism code FF) | MIC (organism code GG) | MIC (organism code HH) | MIC (organism code II) | MIC (organism code JJ) | MIC (organism code KK) | MIC (organism code LL) | MIC (organism code MM) | MIC (organism code NN) | MIC (organism code OO) | MIC (organism code PP) | MIC (organism code QQ) | MIC (organism code RR) | MIC (organism code SS) | MIC (organism code TT) | other results
1 | CCC1OC(=O)C(C)C(=O)C(C)C(OC2OC(C)CC(N(C)C)C2O)C(C)(OCC=Cc2ccc3cc(O)ccc3c2)CC(C)C(=O)C(C)C2NC(=O)OC12C (stereo not drawn) [Example 287, Compound of Formula (IX): L is CO, T is NH2, R is —CH2CH═CH-(6-hydroxy-2-naphthyl)] | 0.1 µg/mL | 0.1 µg/mL | > 100 µg/mL | 0.1 µg/mL | 0.1 µg/mL | 0.02 µg/mL | > 100 µg/mL | 0.1 µg/mL | 0.05 µg/mL | 0.02 µg/mL | 0.02 µg/mL | 0.02 µg/mL | 3.1 µg/mL | 0.1 µg/mL | 0.02 µg/mL | 0.2 µg/mL | 50 µg/mL | 0.39 µg/mL | > 100 µg/mL | > 100 µg/mL | MIC (organism code UU): 0.39 µg/mL; MIC (organism code VV): 0.05 µg/mL; MIC (organism code WW): 2 µg/mL; MIC (organism code XX): 0.03 µg/mL; MIC (organism code YY): 0.03 µg/mL; MIC (organism code ZZ): 4 µg/mL; MIC (organism code ZZA): 0.5 µg/mL
2 | CC[C@H]1OC(=O)[C@H](C)C(=O)[C@H](C)[C@@H](O[C@@H]2O[C@H](C)C[C@H](N(C)C)[C@H]2O)[C@@](C)(OCC=Cc2cnc3ccc(C(=O)O)cc3c2)C[C@@H](C)C(=O)[C@H](C)[C@H]2NC(=O)O[C@@]21C [Example 214] | 6.2 µg/mL (≈ 7.65 µM) | 251 µg/mL (≈ 310 µM) | > 100 µg/mL | 12.5 µg/mL (≈ 15.4 µM) | 12.5 µg/mL (≈ 15.4 µM) | 12.5 µg/mL (≈ 15.4 µM) | > 100 µg/mL | 25 µg/mL (≈ 30.9 µM) | 25 µg/mL (≈ 30.9 µM) | 6.2 µg/mL (≈ 7.65 µM) | 3.1 µg/mL (≈ 3.83 µM) | 1.56 µg/mL (≈ 1.93 µM) | 12.5 µg/mL (≈ 15.4 µM) | 25 µg/mL (≈ 30.9 µM) | 12.5 µg/mL (≈ 15.4 µM) | 12.5 µg/mL (≈ 15.4 µM) | > 100 µg/mL | 3.1 µg/mL (≈ 3.83 µM) | > 100 µg/mL | > 100 µg/mL | MIC (organism code UU): 100 µg/mL (≈ 123 µM); MIC (organism code VV): 50 µg/mL (≈ 61.7 µM); MIC (organism code WW): 64 µg/mL (≈ 79 µM); MIC (organism code XX): 1 µg/mL (≈ 1.23 µM); MIC (organism code YY): 1 µg/mL (≈ 1.23 µM); MIC (organism code ZZ): > 128 µg/mL; MIC (organism code ZZA): 32 µg/mL (≈ 39.5 µM)
3 | CCC1OC(=O)C(C)C(=O)C(C)C(OC2OC(C)CC(N(C)C)C2O)C(C)(OCC=Cc2ccc3cc(OC)ccc3c2)CC(C)C(=O)C(C)C2NC(=O)OC12C (stereo not drawn) [Example 283, Compound of Formula (IX): L is CO, T is NH2, R is —CH2CH═CH-(6-methoxy-2-naphthyl)] | 0.1 µg/mL | 0.1 µg/mL | 100 µg/mL | 0.1 µg/mL | 0.1 µg/mL | 0.1 µg/mL | 50 µg/mL | 0.2 µg/mL | 0.05 µg/mL | 0.01 µg/mL | 0.02 µg/mL | ≤ 0.005 µg/mL | 3.1 µg/mL | 0.2 µg/mL | 0.01 µg/mL | 0.2 µg/mL | > 100 µg/mL | 0.78 µg/mL | > 100 µg/mL | > 100 µg/mL | MIC (organism code UU): 0.39 µg/mL; MIC (organism code VV): 0.2 µg/mL; MIC (organism code WW): 2 µg/mL; MIC (organism code XX): ≤ 0.004 µg/mL; MIC (organism code YY): ≤ 0.004 µg/mL; MIC (organism code ZZ): 4 µg/mL; MIC (organism code ZZA): 0.125 µg/mL

Source: patent USRE39591E1, “6-O-substituted ketolides having antibacterial activity” (Abbott Laboratories, priority 1996, dated 2007)
